The source of these data is PubChem BioAssay AID298 (DTP/NCI, 2004).

The test system of this assay is MX-1 breast xenograft, intrarenal, nude mice, tumor weight. Kind of assay: NCI In Vivo Anticancer Drug Screen. Data for tumor model Human Mammary Carcinoma MX-1 Xenograft (intrarenal inoculation) in NU/NU BALB/C (nude) mice. The following applies: endpoint: mean tumor weight change, higher = larger tumour. In outline:
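Transplantable tumors established in mice; animals dosed with compound or vehicle; survival or tumor size then recorded. Result reported as treated (T) divided by vehicle control (C).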

The mark [1] stands for this setting: dose: 150.0 mg/kg/injection, schedule: Q04DX003 (ip), vehicle: suspension in saline.
The mark [2] stands for this setting: dose: 300.0 mg/kg/injection, schedule: Q04DX003 (ip), vehicle: suspension in saline.
Where [3] appears, read: dose: 150.0 mg/kg/injection, schedule: Q04DX003 (ip), vehicle: DMSO.
[4] abbreviates: dose: 300.0 mg/kg/injection, schedule: Q04DX003 (ip), vehicle: DMSO.
[5] abbreviates: dose: 150.0 mg/kg/injection, schedule: Q04DX003 (ip), vehicle: saline.
The mark [6] stands for this setting: dose: 300.0 mg/kg/injection, schedule: Q04DX003 (ip), vehicle: saline.
Setting [7] is: dose: 600.0 mg/kg/injection, schedule: Q04DX003 (ip), vehicle: saline.
[8] abbreviates: dose: 100.0 mg/kg/injection, schedule: Q04DX003 (ip), vehicle: Klucel (hydroxypropylcellulose) (HPC).
Setting [9] is: dose: 1200.0 mg/kg/injection, schedule: Q04DX003 (ip), vehicle: saline.
Setting [10] is: dose: 200.0 mg/kg/injection, schedule: Q04DX003 (ip), vehicle: Klucel (hydroxypropylcellulose) (HPC).
Where [11] appears, read: dose: 150.0 mg/kg/injection, schedule: Q04DX003 (sc), vehicle: saline.

Where “and” joins values, the source holds several entries; their conditions need not be identical. Identical values can stand only once. Results filed as inconclusive are left out.

Regarding `COc1cc([C@@H]2c3cc4c(cc3[C@@H](OC3OC5CO[C@@H](c6cccs6)OC5C(O)C3O)[C@H]3COC(=O)[C@H]23)OCO4)cc(OC)c1O` (stereo partly drawn), the T/C was 82 % of control (dose: 8.75 mg/kg/injection, schedule: Q01DX010 (ip), vehicle: saline) and 74 % of control (dose: 17.5 mg/kg/injection, schedule: Q01DX010 (ip), vehicle: saline).
As to `CC#CCOCC(O)CCl` (stereo not drawn), the T/C runs as follows: under setting [1], 91 % of control and 97 % of control; under setting [2], 97 % of control.
On to `CC(CNC(=O)C12CC3CC(CC(C3)C1)C2)NC(=O)C12CC3CC(CC(C3)C1)C2` (stereo not drawn), for which the T/C reads like this: (dose: 75.0 mg/kg/injection, schedule: Q04DX003 (ip), vehicle: DMSO) 82 % of control; under setting [3], 95 % of control; under setting [4], 106 % of control; (dose: 600.0 mg/kg/injection, schedule: Q04DX003 (ip), vehicle: DMSO) 105 % of control.
Take `COc1cc(C(C)c2cc3c(cc2OCCO)OCO3)cc(OC)c1OC` (stereo not drawn): the T/C is 69 % of control under setting [5], 65 % of control under setting [6] and 21 % of control under setting [7].
Take `CO[C@@]12[C@@H]3N[C@@H]3CN1C1=C(C(=O)C(NCC3CCCO3)=C(C)C1=O)[C@@H]2COC(N)=O` (stereo partly drawn): the T/C is 43 % of control (dose: 6.25 mg/kg/injection, schedule: Q04DX003 (ip), vehicle: Klucel (hydroxypropylcellulose) (HPC)); 56 % of control and 57 % of control (dose: 12.5 mg/kg/injection, schedule: Q04DX003 (ip), vehicle: Klucel (hydroxypropylcellulose) (HPC)); 1 % of control and 3 % of control (dose: 12.5 mg/kg/injection, schedule: Q04DX003 (ip), vehicle: distilled water + Tween-80); 35 % of control and 59 % of control (dose: 25.0 mg/kg/injection, schedule: Q04DX003 (ip), vehicle: Klucel (hydroxypropylcellulose) (HPC)); 28 % of control and 32 % of control (dose: 50.0 mg/kg/injection, schedule: Q04DX003 (ip), vehicle: Klucel (hydroxypropylcellulose) (HPC)); -4 % of control (dose: 50.0 mg/kg/injection, schedule: Q04DX003 (ip), vehicle: distilled water + Tween-80). In addition, the T/C under setting [8] is 14 % of control.
With `O=c1[nH]cnc2c1nnn2C1OC(CO)C(O)C1O` (stereo not drawn), the T/C reads like this: under setting [5], 18 % of control and 32 % of control; under setting [1], 11 % of control and 24 % of control; under setting [6], 17 % of control and 19 % of control; under setting [2], 10 % of control and 20 % of control; under setting [7], 8 % of control and 13 % of control; (dose: 600.0 mg/kg/injection, schedule: Q04DX003 (ip), vehicle: suspension in saline) 9 % of control and 13 % of control. The T/C was 9 % of control and 11 % of control under setting [9]; 8 % of control and 12 % of control (dose: 1200.0 mg/kg/injection, schedule: Q04DX003 (ip), vehicle: suspension in saline).
For the compound `O=C(Nc1cccnc1)c1ccc([N+](=O)[O-])s1`, the T/C runs as follows: (dose: 50.0 mg/kg/injection, schedule: Q04DX003 (ip), vehicle: saline) 92 % of control; (dose: 100.0 mg/kg/injection, schedule: Q04DX003 (ip), vehicle: saline) 81 % of control and 90 % of control; (dose: 200.0 mg/kg/injection, schedule: Q04DX003 (ip), vehicle: saline) 92 % of control and 103 % of control; (dose: 400.0 mg/kg/injection, schedule: Q04DX003 (ip), vehicle: saline) 80 % of control; (dose: 800.0 mg/kg/injection, schedule: Q04DX003 (ip), vehicle: saline) 105 % of control.
Turning to `C[CH2][Sn]([Cl])([CH2]C)[c]1cc[c]([Sn]([Cl])([CH2]C)[CH2]C)cc1`, the T/C (dose: 0.25 mg/kg/injection, schedule: Q04DX003 (ip), vehicle: Klucel (hydroxypropylcellulose) (HPC)) is 103 % of control; the T/C (dose: 0.5 mg/kg/injection, schedule: Q04DX003 (ip), vehicle: Klucel (hydroxypropylcellulose) (HPC)) was 109 % of control; the T/C (dose: 1.0 mg/kg/injection, schedule: Q04DX003 (ip), vehicle: Klucel (hydroxypropylcellulose) (HPC)) was 95 % of control.
For the compound `O=C1[C@@H]2C3C=CC([C@H]4C(=O)N(CO)C(=O)[C@@H]34)[C@@H]2C(=O)N1CO`, the T/C is, setting by setting: under setting [8], 78 % of control; under setting [10], 52 % of control.
Regarding `CN(CCN(C)C(=O)CCOS(C)(=O)=O)C(=O)CCOS(C)(=O)=O`, the T/C runs as follows: (dose: 37.5 mg/kg/injection, schedule: Q04DX003 (sc), vehicle: saline) 7 % of control; (dose: 75.0 mg/kg/injection, schedule: Q04DX003 (sc), vehicle: saline) -100 % of control; under setting [11], -100 % of control; (dose: 300.0 mg/kg/injection, schedule: Q04DX003 (sc), vehicle: saline) -44 % of control.
For the compound `COc1cc(C2=NCCc3cc4c(cc32)OCO4)cc(OC)c1OC`, the T/C (dose: 75.0 mg/kg/injection, schedule: Q04DX003 (ip), vehicle: saline + alcohol) is 116 % of control and the T/C (dose: 150.0 mg/kg/injection, schedule: Q04DX003 (ip), vehicle: saline + alcohol) was 99 % of control.
With `NC(CCl)=NCC12CC3CC(CC(C3)C1)C2`, the T/C is, setting by setting: (dose: 37.5 mg/kg/injection, schedule: Q04DX003 (sc), vehicle: Klucel (hydroxypropylcellulose) (HPC)) 102 % of control; (dose: 75.0 mg/kg/injection, schedule: Q04DX003 (sc), vehicle: Klucel (hydroxypropylcellulose) (HPC)) 104 % of control.
In the case of `O=CC(O)C(O)C(O)C(O)CO` (stereo not drawn), the T/C by setting is: (dose: 75.0 mg/kg/injection, schedule: Q04DX003 (ip), vehicle: saline) 72 % of control; under setting [5], 113 % of control; under setting [6], 65 % of control; under setting [7], 93 % of control; under setting [9], 59 % of control.
For the compound `COC(=O)Nc1nc2ccc(C3(c4ccc(F)cc4)OCCO3)cc2[nH]1`, the T/C (dose: 600.0 mg/kg/injection, schedule: Q04DX003 (sc), vehicle: saline with Tween-80) was 190 % of control.
Turning to `CN(C)N=Nc1ccc(C(N)=O)cc1`, the T/C is 85 % of control (dose: 50.0 mg/kg/injection, schedule: Q04DX003 (ip), vehicle: saline with Tween-80); 78 % of control (dose: 100.0 mg/kg/injection, schedule: Q04DX003 (ip), vehicle: saline with Tween-80); 80 % of control (dose: 200.0 mg/kg/injection, schedule: Q04DX003 (ip), vehicle: saline with Tween-80).
Regarding `CCCSc1nc(COC(=O)NC)c(COC(=O)NC)n1C`, the T/C reads like this: (dose: 30.0 mg/kg/injection, schedule: Q04DX003 (ip), vehicle: saline) 74 % of control; (dose: 60.0 mg/kg/injection, schedule: Q04DX003 (ip), vehicle: saline) 76 % of control; (dose: 120.0 mg/kg/injection, schedule: Q04DX003 (ip), vehicle: saline) 70 % of control; (dose: 240.0 mg/kg/injection, schedule: Q04DX003 (ip), vehicle: saline) 26 % of control.
Turning to `CN(N=O)C(=O)N[C@@H](C=O)[C@@H](O)[C@H](O)[C@H](O)CO`, the T/C by setting is: (dose: 37.0 mg/kg/injection, schedule: Q04DX003 (ip), vehicle: other) 193 % of control; (dose: 75.0 mg/kg/injection, schedule: Q04DX003 (ip), vehicle: other) 117 % of control; (dose: 150.0 mg/kg/injection, schedule: Q04DX003 (ip), vehicle: other) 70 % of control; under setting [11], 63 % of control.
Consider `CC(=O)OCC1OC(n2cc(CBr)nn2)C(OC(C)=O)C(OC(C)=O)C1OC(C)=O` (stereo not drawn), for which the T/C runs as follows: (dose: 25.0 mg/kg/injection, schedule: Q01DX010 (sc), vehicle: saline with Tween-80) 92 % of control; (dose: 50.0 mg/kg/injection, schedule: Q01DX010 (sc), vehicle: saline with Tween-80) 94 % of control; (dose: 100.0 mg/kg/injection, schedule: Q01DX010 (sc), vehicle: saline with Tween-80) 95 % of control; (dose: 200.0 mg/kg/injection, schedule: Q01DX010 (sc), vehicle: saline with Tween-80) 87 % of control.
In the case of `CNC(=S)SC1=NS(=O)(=O)c2ccccc2N1`, the T/C reads like this: under setting [10], 179 % of control; (dose: 400.0 mg/kg/injection, schedule: Q04DX003 (ip), vehicle: Klucel (hydroxypropylcellulose) (HPC)) 165 % of control.
As for `COc1cccc2c1C(=O)c1c(O)c3c(c(O)c1C2=O)C[C@@](O)(C(=O)CO)C[C@@H]3OC1CC(N)C(O)C(C)O1` (stereo partly drawn), the T/C is, setting by setting: (dose: 2.0 mg/kg/injection, schedule: Q04DX003 (ip), vehicle: water) 33 % of control; (dose: 4.0 mg/kg/injection, schedule: Q04DX003 (ip), vehicle: water) 7 % of control; (dose: 8.0 mg/kg/injection, schedule: Q04DX003 (ip), vehicle: water) -88 % of control.
As for `NS(=O)(=O)OCCCCCCCOS(N)(=O)=O`, the T/C (dose: 150.0 mg/kg/injection, schedule: Q04DX003 (ip), vehicle: saline with Tween-80) was -40 % of control.
Consider `CCCCNc1ccc2nnc(C)n2n1`, for which the T/C reads like this: under setting [3], 94 % of control and 108 % of control; under setting [4], 78 % of control and 88 % of control.
